Assays:
Format in all cases: biochemical
Tek = molecular target: T1, Tek (Homo sapiens, UniProt Q02763); assay: Kinase inhibition assay (33P transfer), Tek; conditions: read-out: Tek-1
T1 construct: Kinases are expressed as either kinase domains or full length constructs; made in house
Outline: (§1)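 Activity read as 33P incorporation from ATP into poly(Glu,Tyr) 4:1 or poly(Arg,Ser) 3:1 substrate bound to microtiter plates, measured by scintillation after acid washing. Enzymes were affinity-purified GST or polyHis fusions (kinase domain or full length) from E. coli or baculovirus; IC50 = 50% reduction in labelled phosphate.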

EPHB4 = molecular target: T2, EPHB4 (Homo sapiens, UniProt P54760); assay: Kinase inhibition assay (33P transfer), EPHB4; conditions: for IC50: read-out: EPHB4-1
T2 construct: Kinases are expressed as either kinase domains or full length constructs; made in house
T2 sequence (P54760 16-987): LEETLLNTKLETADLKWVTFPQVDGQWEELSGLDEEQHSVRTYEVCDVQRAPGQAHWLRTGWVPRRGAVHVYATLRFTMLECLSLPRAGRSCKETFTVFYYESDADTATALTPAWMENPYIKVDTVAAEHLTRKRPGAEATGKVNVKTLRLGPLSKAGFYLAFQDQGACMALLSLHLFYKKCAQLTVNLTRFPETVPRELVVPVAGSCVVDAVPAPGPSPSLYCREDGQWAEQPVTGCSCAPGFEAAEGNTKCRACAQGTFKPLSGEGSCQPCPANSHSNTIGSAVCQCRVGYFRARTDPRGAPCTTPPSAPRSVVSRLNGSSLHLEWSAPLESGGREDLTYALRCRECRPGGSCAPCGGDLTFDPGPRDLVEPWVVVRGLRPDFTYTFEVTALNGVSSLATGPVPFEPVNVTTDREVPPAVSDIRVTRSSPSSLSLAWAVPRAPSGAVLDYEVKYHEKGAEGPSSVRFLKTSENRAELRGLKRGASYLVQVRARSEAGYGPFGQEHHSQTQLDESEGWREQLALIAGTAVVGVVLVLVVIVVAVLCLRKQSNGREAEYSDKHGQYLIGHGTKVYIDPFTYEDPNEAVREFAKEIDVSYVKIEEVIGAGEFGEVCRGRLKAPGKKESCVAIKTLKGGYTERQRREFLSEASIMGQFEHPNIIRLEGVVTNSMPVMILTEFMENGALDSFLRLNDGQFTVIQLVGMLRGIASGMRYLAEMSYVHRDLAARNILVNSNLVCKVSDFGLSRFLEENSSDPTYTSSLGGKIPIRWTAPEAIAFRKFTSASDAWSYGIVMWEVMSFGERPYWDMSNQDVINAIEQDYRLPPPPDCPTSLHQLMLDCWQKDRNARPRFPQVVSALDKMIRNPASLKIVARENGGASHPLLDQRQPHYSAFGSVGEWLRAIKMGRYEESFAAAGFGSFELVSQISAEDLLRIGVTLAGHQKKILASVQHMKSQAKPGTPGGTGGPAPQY

Src = molecular target: T3, Src (Homo sapiens, UniProt P12931); assay: Kinase inhibition assay (33P transfer), Src; conditions: Table 6, Src-1 kinase inhibition class
T3 construct: Kinases are expressed as either kinase domains or full length constructs; made in house
T3 sequence (P12931 whole entry, species assumed, the tested form may be a part): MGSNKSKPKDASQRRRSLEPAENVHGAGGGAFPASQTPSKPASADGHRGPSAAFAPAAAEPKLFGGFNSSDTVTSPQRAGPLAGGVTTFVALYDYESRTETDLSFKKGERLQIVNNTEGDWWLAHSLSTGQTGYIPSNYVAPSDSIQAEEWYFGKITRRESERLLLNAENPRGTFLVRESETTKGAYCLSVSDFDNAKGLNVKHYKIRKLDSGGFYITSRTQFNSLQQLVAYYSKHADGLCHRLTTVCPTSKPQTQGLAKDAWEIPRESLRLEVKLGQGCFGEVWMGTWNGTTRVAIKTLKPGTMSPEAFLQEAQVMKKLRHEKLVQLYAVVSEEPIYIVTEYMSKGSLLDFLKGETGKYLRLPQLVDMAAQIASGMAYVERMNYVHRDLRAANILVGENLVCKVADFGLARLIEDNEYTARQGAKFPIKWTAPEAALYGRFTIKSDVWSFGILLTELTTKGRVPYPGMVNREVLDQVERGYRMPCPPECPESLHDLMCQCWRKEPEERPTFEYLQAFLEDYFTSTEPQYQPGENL
Outline: as §1

Ret-1 = molecular target: T4, Ret-1 (Homo sapiens, UniProt P07949); assay: Kinase inhibition assay (33P transfer), Ret; conditions: Table 6, Ret-1 kinase inhibition class
T4 construct: Kinases are expressed as either kinase domains or full length constructs; made in house
T4 sequence (P07949 29-1114): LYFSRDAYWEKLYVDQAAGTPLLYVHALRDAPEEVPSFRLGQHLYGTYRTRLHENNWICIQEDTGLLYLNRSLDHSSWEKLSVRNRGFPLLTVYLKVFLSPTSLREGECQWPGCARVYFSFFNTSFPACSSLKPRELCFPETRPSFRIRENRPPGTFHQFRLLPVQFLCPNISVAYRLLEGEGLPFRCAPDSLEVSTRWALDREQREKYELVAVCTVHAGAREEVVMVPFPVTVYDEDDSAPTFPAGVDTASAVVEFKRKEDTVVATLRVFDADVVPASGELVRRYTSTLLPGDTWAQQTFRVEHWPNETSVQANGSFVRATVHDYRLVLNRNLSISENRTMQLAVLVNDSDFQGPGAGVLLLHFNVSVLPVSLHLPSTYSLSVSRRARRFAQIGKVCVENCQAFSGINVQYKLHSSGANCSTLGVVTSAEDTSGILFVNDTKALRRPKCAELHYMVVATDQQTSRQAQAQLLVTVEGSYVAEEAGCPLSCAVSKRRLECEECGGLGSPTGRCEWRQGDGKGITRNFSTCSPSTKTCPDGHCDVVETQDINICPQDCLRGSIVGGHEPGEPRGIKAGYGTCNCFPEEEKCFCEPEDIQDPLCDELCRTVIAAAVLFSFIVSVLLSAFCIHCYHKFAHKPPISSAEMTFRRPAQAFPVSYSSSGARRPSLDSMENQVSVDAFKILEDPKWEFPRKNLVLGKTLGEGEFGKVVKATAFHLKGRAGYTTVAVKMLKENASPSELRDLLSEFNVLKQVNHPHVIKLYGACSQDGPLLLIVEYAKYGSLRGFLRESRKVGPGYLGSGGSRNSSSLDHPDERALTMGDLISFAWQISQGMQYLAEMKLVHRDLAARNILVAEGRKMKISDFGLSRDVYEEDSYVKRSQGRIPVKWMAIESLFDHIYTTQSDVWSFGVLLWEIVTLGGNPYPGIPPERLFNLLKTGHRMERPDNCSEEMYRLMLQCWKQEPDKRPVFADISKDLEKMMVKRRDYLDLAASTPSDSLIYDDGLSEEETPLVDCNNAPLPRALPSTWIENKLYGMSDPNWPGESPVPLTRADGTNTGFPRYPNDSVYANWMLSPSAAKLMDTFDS

EGFR = molecular target: T5, EGFR (Homo sapiens, UniProt P00533); assay: Kinase inhibition assay (33P transfer), EGFR; conditions: Table 2, kinase inhibition class; for IC50: read-out: EGFR-1
T5 construct: Kinases are expressed as either kinase domains or full length constructs; made in house
T5 sequence (P00533 25-1210, species assumed): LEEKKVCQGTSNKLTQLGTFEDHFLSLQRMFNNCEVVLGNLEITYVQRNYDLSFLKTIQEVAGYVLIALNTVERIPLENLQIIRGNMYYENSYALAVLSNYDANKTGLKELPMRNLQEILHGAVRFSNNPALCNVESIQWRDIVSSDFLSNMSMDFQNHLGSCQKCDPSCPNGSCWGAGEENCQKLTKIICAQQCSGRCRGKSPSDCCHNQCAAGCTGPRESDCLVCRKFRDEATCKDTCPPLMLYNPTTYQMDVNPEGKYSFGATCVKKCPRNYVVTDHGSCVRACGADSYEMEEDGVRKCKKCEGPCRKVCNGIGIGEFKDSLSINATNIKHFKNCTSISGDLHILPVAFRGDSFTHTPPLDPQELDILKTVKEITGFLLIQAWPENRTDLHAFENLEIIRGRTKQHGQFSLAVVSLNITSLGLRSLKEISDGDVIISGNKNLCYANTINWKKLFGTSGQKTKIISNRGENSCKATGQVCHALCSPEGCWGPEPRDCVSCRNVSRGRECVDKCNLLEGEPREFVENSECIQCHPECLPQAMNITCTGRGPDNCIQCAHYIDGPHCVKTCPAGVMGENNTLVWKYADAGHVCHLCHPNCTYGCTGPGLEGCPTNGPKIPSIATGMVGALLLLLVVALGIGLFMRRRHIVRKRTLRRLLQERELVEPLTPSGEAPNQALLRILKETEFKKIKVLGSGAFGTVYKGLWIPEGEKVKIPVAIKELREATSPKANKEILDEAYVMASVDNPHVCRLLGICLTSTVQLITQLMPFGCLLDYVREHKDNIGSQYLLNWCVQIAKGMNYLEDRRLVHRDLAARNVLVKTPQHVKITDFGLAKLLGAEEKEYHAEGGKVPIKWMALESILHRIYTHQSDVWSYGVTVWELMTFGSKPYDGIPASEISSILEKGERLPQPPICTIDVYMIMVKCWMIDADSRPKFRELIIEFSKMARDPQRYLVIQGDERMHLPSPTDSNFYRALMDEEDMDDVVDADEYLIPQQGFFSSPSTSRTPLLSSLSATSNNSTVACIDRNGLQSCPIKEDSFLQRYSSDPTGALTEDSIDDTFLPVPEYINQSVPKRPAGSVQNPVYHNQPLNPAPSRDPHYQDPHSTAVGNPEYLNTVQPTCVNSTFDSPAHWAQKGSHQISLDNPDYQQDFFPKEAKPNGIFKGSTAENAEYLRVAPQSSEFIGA
Outline: as §1

ErbB2 = molecular target: T6, ErbB2 (Homo sapiens, UniProt P04626); assay: Kinase inhibition assay (33P transfer), ErbB2; conditions: read-out: ErbB2-2
T6 construct: Kinases are expressed as either kinase domains or full length constructs; made in house
Outline: as §1

T1 sequence (Q02763 23-1124, species assumed): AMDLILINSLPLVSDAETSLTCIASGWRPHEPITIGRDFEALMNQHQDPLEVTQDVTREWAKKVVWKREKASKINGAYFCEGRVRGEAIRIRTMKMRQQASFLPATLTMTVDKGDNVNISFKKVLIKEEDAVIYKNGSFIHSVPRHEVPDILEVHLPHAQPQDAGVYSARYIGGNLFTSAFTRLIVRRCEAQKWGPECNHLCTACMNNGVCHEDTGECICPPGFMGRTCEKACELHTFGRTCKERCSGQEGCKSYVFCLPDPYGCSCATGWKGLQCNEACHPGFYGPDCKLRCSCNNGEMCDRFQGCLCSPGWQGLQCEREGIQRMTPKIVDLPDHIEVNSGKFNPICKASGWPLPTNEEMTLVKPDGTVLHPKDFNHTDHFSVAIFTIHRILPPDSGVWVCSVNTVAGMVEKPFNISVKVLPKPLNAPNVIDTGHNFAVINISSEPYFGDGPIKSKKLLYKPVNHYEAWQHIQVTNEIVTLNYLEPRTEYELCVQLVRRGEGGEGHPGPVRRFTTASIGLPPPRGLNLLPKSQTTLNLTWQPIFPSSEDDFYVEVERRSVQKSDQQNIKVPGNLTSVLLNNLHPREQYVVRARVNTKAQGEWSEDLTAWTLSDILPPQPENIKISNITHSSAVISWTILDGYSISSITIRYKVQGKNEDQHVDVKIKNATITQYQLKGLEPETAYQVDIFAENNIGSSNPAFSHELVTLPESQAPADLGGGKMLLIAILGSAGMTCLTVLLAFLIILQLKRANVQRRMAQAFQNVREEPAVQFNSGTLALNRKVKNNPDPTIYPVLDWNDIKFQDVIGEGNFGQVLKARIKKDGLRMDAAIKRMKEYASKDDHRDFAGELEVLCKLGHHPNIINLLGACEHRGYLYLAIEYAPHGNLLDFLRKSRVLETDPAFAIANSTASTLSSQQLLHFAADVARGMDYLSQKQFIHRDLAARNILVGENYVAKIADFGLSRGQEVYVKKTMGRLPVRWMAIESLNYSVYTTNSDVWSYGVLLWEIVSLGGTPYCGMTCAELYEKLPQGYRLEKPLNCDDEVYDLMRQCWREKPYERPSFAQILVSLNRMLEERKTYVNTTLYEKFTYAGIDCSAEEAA

IC50 (Tek) | IC50 (EPHB4) | IC50 (Src) | IC50 (Ret-1) | IC50 (EGFR) | IC50 (ErbB2) | Compound | EPHB4-1 (EPHB4) | Src-1 (Src) | EGFR-1 (EGFR)
> 9.14 µM | > 9.14 µM | > 9.14 µM | < 0.812 µM | > 9.14 µM |  | COc1ccc2c(c1)c(CCNC(C)=O)cn2-c1ncnc(Nc2cc(OC)c(OC)c(OC)c2)n1 [Compound 339] |  |  | 
8.47 to 10.9 µM | 8.47 to 10.9 µM | > 10.9 µM | > 10.9 µM | 8.47 to 10.9 µM |  | COc1ccc(Nc2ncnc(Nc3cc(OC)c(OC)c(OC)c3)n2)cc1OC [Compound 36] |  |  | 
> 11.3 µM | 1.01 to 6.04 µM |  | 1.01 to 6.04 µM | 1.01 to 6.04 µM |  | COc1ccc(N(C)c2ncnc(Nc3cc(OC)c(OC)c(OC)c3)n2)cc1 [Compound 106] |  |  | 
> 9.64 µM | < 0.857 µM | < 0.857 µM |  | < 0.857 µM |  | COc1cc(Nc2ncnc(Nc3ccc(Br)c(Cl)c3)n2)cc(OC)c1OC [Compound 936] |  |  | 
> 11.4 µM | > 11.4 µM | > 11.4 µM | > 11.4 µM | 8.87 to 11.4 µM |  | COc1cc(Nc2ncnc(-n3c(=O)[nH]c4ccccc43)n2)cc(OC)c1OC [Compound 325] |  |  | 
> 11 µM | > 11 µM | > 11 µM | > 11 µM | > 11 µM |  | COc1cc(Nc2ncnc(Nc3nc4ccccc4n3C)n2)cc(OC)c1OC [Compound 938] |  |  | 
> 11.5 µM | > 11.5 µM | > 11.5 µM | > 11.5 µM | > 11.5 µM |  | COc1cc(Nc2ncnc(-n3cc(C)c4ccccc43)n2)cc(OC)c1OC [Compound 323] |  |  | 
5.64 to 8.23 µM | < 0.94 µM | < 0.94 µM | < 0.94 µM | < 0.94 µM |  | COc1cc(Nc2ncnc(Nc3cc(-c4cccs4)n[nH]3)n2)cc(OC)c1OC [Compound 318] |  |  | 
> 11.3 µM | 1 to 6.01 µM | < 1 µM | 1 to 6.01 µM | 1 to 6.01 µM |  | COc1cc(Nc2ncnc(Nc3cc(C(C)(C)C)[nH]n3)n2)cc(OC)c1OC [Compound 313] |  |  | 
> 12.7 µM | > 12.7 µM | 1.13 to 6.79 µM | < 1.13 µM | < 1.13 µM |  | COc1ccc(Nc2ncnc(Nc3ccc(C)c(O)c3)n2)cc1OC [Compound 119] |  |  | 
5.86 to 8.55 µM | < 0.977 µM | < 0.977 µM | < 0.977 µM | < 0.977 µM |  | COc1cc(Nc2ncnc(Nc3cc(-c4ccco4)n[nH]3)n2)cc(OC)c1OC [Compound 308] |  |  | 
> 10.8 µM | > 10.8 µM | > 10.8 µM | > 10.8 µM | > 10.8 µM |  | COC(=O)c1sccc1Nc1ncnc(Nc2cc(OC)c(OC)c(OC)c2)n1 [Compound 315] |  |  | 
> 13.3 µM | > 13.3 µM | > 13.3 µM | > 13.3 µM | > 13.3 µM |  | COc1cc(Nc2ncnc(-c3ccccc3)n2)cc(OC)c1OC [Compound 970] |  |  | 
 | > 10.9 µM | < 0.965 µM |  | 5.79 to 8.45 µM |  | COc1cc(Nc2ncnc(Nc3cc(OC)c(OC)c(OC)c3)n2)cc(OC)n1 [Compound 253] |  |  | 
8.18 to 10.5 µM | 0.935 to 5.61 µM | 0.935 to 5.61 µM |  | < 0.935 µM |  | C=CCN(c1ccc(Cl)cc1)c1ncnc(Nc2cc(OC)c(OC)c(OC)c2)n1 [Compound 972] |  |  | 
> 13.3 µM | > 13.3 µM | 1.19 to 7.11 µM |  | < 1.19 µM |  | COc1ccc(Nc2ncnc(Nc3cccc(C)c3)n2)cc1OC [Compound 108] |  |  | 
> 11.8 µM | 1.05 to 6.28 µM | < 1.05 µM |  | < 1.05 µM |  | COc1cc(Nc2ncnc(Nc3ccc(C)c(N)c3)n2)cc(OC)c1OC [Compound 935] |  |  | 

The remaining lines, values behind:

Compound | IC50 (Tek) | IC50 (EPHB4) | IC50 (Src) | IC50 (Ret-1) | IC50 (EGFR) | IC50 (ErbB2) | EPHB4-1 (EPHB4) | Src-1 (Src) | EGFR-1 (EGFR)
COCCOc1ccc(Nc2ncnc(Nc3cc(-c4ccco4)n[nH]3)n2)cc1OCCOC [Compound 328] | 5.13 to 7.49 µM | > 9.63 µM | 0.856 to 5.13 µM | 0.856 to 5.13 µM | 0.856 to 5.13 µM |  |  |  | 
COc1ccc(Nc2ncnc(Nc3ccc(N(C)C)cc3)n2)cc1OC [Compound 114] | > 12.3 µM | > 12.3 µM |  | 1.09 to 6.55 µM | > 12.3 µM |  |  |  | 
COCCOc1cc(Nc2ncnc(Nc3ccc(C)c(O)c3)n2)ccc1OC [Compound 127] | > 11.3 µM | 8.81 to 11.3 µM | < 1.01 µM | < 1.01 µM | < 1.01 µM |  |  |  | 
CCOc1ccc(Nc2ncnc(Nc3ccc(C)c(O)c3)n2)cc1OCC [Compound 121] | > 11.8 µM | > 11.8 µM | < 1.05 µM | < 1.05 µM | 1.05 to 6.29 µM |  |  |  | 
COc1ccc(Nc2ncnc(N(CC(=O)O)c3ccc4c(c3)OCO4)n2)cc1OC [Compound 320] | > 10.6 µM | > 10.6 µM | > 10.6 µM | > 10.6 µM | 0.94 to 5.64 µM |  |  |  | 
COc1cc(Nc2ncnc(N(c3ccccc3)c3nc4ccccc4[nH]3)n2)cc(OC)c1OC [Compound 335] | > 9.58 µM | 0.852 to 5.11 µM | 5.11 to 7.45 µM | < 0.852 µM | < 0.852 µM |  |  |  | 
c1coc(-c2cc(Nc3ncnc(Nc4ccc(N5CCOCC5)cc4)n3)[nH]n2)c1 [Compound 340] | 8.65 to 11.1 µM | 0.989 to 5.93 µM | > 11.1 µM | < 0.989 µM | 5.93 to 8.65 µM |  |  |  | 
COc1cc(Nc2ncnc(-n3ccc4cc(OCc5ccccc5)ccc43)n2)cc(OC)c1OC [Compound 200] | > 9.31 µM | > 9.31 µM | > 9.31 µM | > 9.31 µM | > 9.31 µM |  |  |  | 
Cc1cccc(Nc2ncnc(Nc3ccc(O)cc3)n2)c1 [Compound 107] | > 15.3 µM | 1.36 to 8.18 µM | < 1.36 µM | 1.36 to 8.18 µM | < 1.36 µM |  |  |  | 
COc1ccc(Nc2ncnc(Nc3cc(-c4ccco4)n[nH]3)n2)cc1OC [Compound 337] | > 11.9 µM | 1.05 to 6.33 µM | 1.05 to 6.33 µM | < 1.05 µM | 1.05 to 6.33 µM |  |  |  | 
NC(=O)c1cccc(Nc2ncnc(Nc3cc(-c4ccco4)n[nH]3)n2)c1 [Compound 342] | > 12.4 µM | 1.1 to 6.62 µM | > 12.4 µM | < 1.1 µM | < 1.1 µM |  |  |  | 
COc1cc(Nc2ncnc(-n3c(Nc4ccccc4)nc4ccccc43)n2)cc(OC)c1OC [Compound 336] | > 9.58 µM | > 9.58 µM | > 9.58 µM | < 0.852 µM | > 9.58 µM |  |  |  | 
COc1cc(Nc2ncnc(N3CCCC4CCCCC43)n2)cc(OC)c1OC (stereo not shown) [Compound 314] | 1 to 6.01 µM | > 11.3 µM | 1 to 6.01 µM | > 11.3 µM | < 1 µM |  |  |  | 
Cc1cccc(Nc2ncnc(Nc3cccc(Br)c3)n2)c1 [Compound 109] | > 12.6 µM | > 12.6 µM |  |  | < 1.12 µM | 6.74 to 9.83 µM |  |  | 
COc1cc(Nc2ncnc(N3CCCCC3)n2)cc(OC)c1OC [Compound 207] | > 13 µM | > 13 µM |  |  | > 13 µM |  |  |  | 
CCOc1ccc(Nc2ncnc(Nc3ccc(OCc4ccccc4)cc3)n2)cc1OCC [Compound 170] | 5.25 to 7.65 µM | 5.25 to 7.65 µM | > 9.84 µM |  | 0.874 to 5.25 µM |  |  |  | 
COc1ccc(Nc2ncnc(Nc3cc(OC)c(OC)c(OC)c3)n2)cn1 [Compound 28] |  |  |  |  |  |  | B (B>0.4 and <2.4 ug/mL) | B (B>0.4 and <2.4 ug/mL) | B (B>0.4 and <2.4 ug/mL)
COc1ccc(Nc2ncnc(Nc3ccc(Oc4ccccc4)cc3)n2)cc1OC [Compound 929] | > 10.8 µM | > 10.8 µM |  | 5.78 to 8.42 µM | < 0.963 µM |  |  |  | 

— US7074789B2, “Kinase inhibitors” (Amgen Inc., priority 1999, dated 2006)
